Consider 1 molecule from patent US9732091B2, “Tryptophanol-derived oxazoloisoindolinones: small-molecule P53 activators” (UNIVERSIDADE DO PORTO, priority 2013, dated 2017).

Broadly, the GI50 is the concentration at which growth is held to half of that of the control. The low end stands for more potent growth inhibition, the high end for less potent growth inhibition.

Experiment [1] concerns MDA-MB-231 (p53R280K). As to the kind of experiment: SRB growth inhibition assay in MDA-MB-231 breast cancer cells. In kind it is cell-based, human. The following applies: Homo sapiens, 48 hours incubation, mean±S.E.M. As for the experimental part: (§1) Tumor cells were plated at 7.5×10^3 cells/well in 96-well plates and incubated for 24 hours. Cells were then exposed to serial dilutions of SLMP53-1, CP-31398 or PRIMA-1 (from 1.85 to 150 μM). The effect of the compounds was analyzed following 48 hours incubation period, using the sulforhodamine B (SRB) assay. The solvent DMSO corresponding to the maximum concentration used in these assays (0.025%) was included as control. The GI50 value, which is the concentration of compound that causes 50% growth inhibition, was calculated for the tested compounds. Results are the mean±S.E.M. of three independent experiments.

The target of experiment [2] is T1, mutant p53 R273H (Homo sapiens, UniProt P04637, R273H).
T1 construct: expressed in transfected cells
As to the kind of experiment: reactivation of mutant p53 in yeast (growth, CFU), R273H. In kind it is cell-based. The settings on record: 10 μM; yeast expressing R273H; 44 hours. As to the method:
FIG. 6 illustrates that SLMP53-1 reactivates mutant p53s R273H, R175H and R280K in yeast. Yeast cells expressing R273H, R280K, Y220C or R175H were incubated in selective medium with 10 μM of SLMP53-1, 10 μM of CP-31398 (for R273H), 10 μM of PRIMA-1 (for R175H and R280K), 50 μM of PhiKan 083 (for Y220C) or DMSO only, for 44 hours. CP-31398, PRIMA-1 and PhiKan 083 were used as positive controls. Results are plotted setting as 100% growth the number of CFU obtained in the presence of DMSO only.
It is also shown that SLMP53-1 can reactivate some mutant p53 forms, particularly R273H, R280K and R175H (FIG. 6).

Experiment [3] relates to HCT116 p53^+/+. As to the kind of experiment: Western blot of p53 and p53-target proteins, PARP cleavage, HCT116 p53^+/+. In kind it is cell-based, human. As for the experimental part:
FIG. 2 illustrates that SLMP53-1 increases the levels of proteins encoded by p53 target genes (MDM2, p21, PUMA and BAX), and leads to PARP cleavage in colon carcinoma cells with wt p53 (HCT116 p53^+/+), but not in colon carcinoma cells without wt p53 (HCT116 p53^−/−). Western blot analysis was performed for human colon carcinoma cells after 16 (B, D, E) and 24 (A, C, F) hours treatment with 15.5 μM of SLMP53-1, 135 nM doxorubicin (DOXO; positive control) or DMSO only. The protein expression levels were evaluated by quantification of Western Blot band intensity (with Bio-Profile Bio-1D++ software) using GAPDH as loading control.

In experiment [4] the test system is MDA-MB-231 breast tumor cells. As to the kind of experiment: Western blot of p53 and p53-target proteins, PARP cleavage, MDA-MB-231. In kind it is cell-based, human. The settings on record: 16.6 μM (GI50), 24/48 hours. An excerpt: FIG. 7 illustrates that SLMP53-1 increases the levels of p53 and of proteins encoded by p53-target genes in MDA-MB-231 breast tumor cells.
For orientation: A western blot detects proteins with antibodies after separation by electrophoresis.

Experiment [5] concerns HCT116 p53^+/+ tumors. As to the kind of experiment: xenograft mouse model, HCT116 p53^+/+ tumors. In kind it is in vivo, BALB/c mice. The following applies: four intraperitoneal injections of 50 mg/kg, vs vehicle, preliminary. As to the method: FIG. 10 illustrates the antitumor activity of SLMP53-1 in vivo. BALB/c mice, 4-6 weeks old, were implanted subcutaneous xenografts using 1.5×10^6 HCT116 p53^+/+ or HCT116 p53^−/− cells. The treatment was initiated when palpable tumors were established (14 days after the cells were injected), and consisted in 4 intraperitoneal injections (2× per week) of vehicle (control) or 50 mg/kg of SLMP53-1. Xenografts were measured during 24 days. Relative tumor volumes were plotted for control and treated groups by dividing the average tumor volume for each data point by average starting tumor volume.
Currently, the toxicity and antitumor activity of SLMP53-1 are under study in vivo using xenograft mouse models. […] Because p53-null tumors were not suppressed, it was confirmed that SLMP53-1 inhibited the tumor growth in a wt p53-dependent manner.

Experiment [6] has as its system HCT116 p53^−/−. As to the kind of experiment: SRB growth inhibition assay in HCT116 p53^−/− colon carcinoma cells. In kind it is cell-based, human. The following applies: Homo sapiens, HCT-116, 48 hours incubation, mean±S.E.M. As for the experimental part: as §1, with “5.0×10^3” for “7.5×10^3”, “incubation,” for “incubation period,”, “value,” for “value, which is”
For experiment [7], the system named is HCT116 p53^+/+ cells. In words: cell cycle analysis by flow cytometry (propidium iodide), HCT116 p53^+/+. Format: cell-based, human. The settings on record: double GI50, 24 hours. As for the experimental part:
FIG. 3 illustrates the effect of SLMP53-1 on cell cycle progression of HCT116 p53^+/+ cells. Cell cycle phases were analyzed by flow cytometry using propidium iodide and quantified using ModFit LT software (Verity Software House Inc., Topsham, USA). Effect of compounds (double GI50) was analyzed after 24 hours treatment. Histograms represent one of two independent experiments; quantification of cell cycle phases represents the mean±S.E.M. of two independent experiments.
In general terms: Flow cytometry measures light scatter and fluorescence of single cells or particles in a stream.

The test system of experiment [8] is MDA-MB-231 cells (mutant p53 R280K). In words: sensitization to etoposide and doxorubicin, SRB assay, MDA-MB-231. In kind it is cell-based, human. As for the experimental part:
FIG. 9 illustrates that SLMP53-1 sensitizes breast cancer MDA-MB-231 cells to the effects of etoposide and doxorubicin. The MDA-MB-231 tumor cells (with the mutant p53 R280K) were treated for 48 hours with increasing concentrations of etoposide ([…] to 6.00 μM) or doxorubicin (187.5 to 750.0 nM) in the presence of a very low concentration (between GI5 to GI10; 4 μM) of SLMP53-1 or with DMSO only. Effect of compounds on cell growth was analyzed following 48 hours incubation, using the sulforhodamine B (SRB) assay. Results are mean±SEM of three to four independent experiments.
It was also investigated if SLMP53-1 increased the sensitivity of MDA-MB-231 cells to the effects of various concentrations of etoposide (0.38 to 6.00 μM) and doxorubicin (187.5 to 750.0 nM). For that, a low concentration of SLMP53-1 (approximately the GI5 to GI10 concentration; 4 μM; without significant anti-proliferative effects on tumor cell lines) was used. […] Particularly, for 0.38 μM etoposide (for which an anti-proliferative effect is not observed), a 25% decrease of tumor cell growth was obtained in the presence of 4 μM of SLMP53-1.
For orientation: Sulforhodamine B stains cellular protein and so reports cell mass.

In the case of `C[C@]12OC[C@H](Cc3c[nH]c4ccccc34)N1C(=O)c1ccccc12` [SLMP53-1], the GI50 in experiment [1] was found to be 16.6 ± 4.2 µM; in experiment [6] it was 34 ± 3.5 µM. Also, the yeast growth inhibition result in experiment [2] is “significant growth inhibition”. The “protein levels of p53 and of MDM2, p21, PUMA and BAX” value in experiment [3] (15.5 μM (GI50), 16 and 24 hours) is listed as “increased”. Moreover, the values for the PARP cleavage entry in experiment [3] (24 hours) and in experiment [4] were “led to PARP cleavage” and “lead to PARP cleavage”, respectively. In experiment [4], the “levels of p53 and of BAX, PUMA and p21” value is “increased”. In addition, the tumor growth entry in experiment [5] is on record as “considerably suppressed”. Moreover, the cell cycle progression entry in experiment [7] is given as “G0/G1-phase cell arrest”. In addition, in experiment [8] (0.38 μM etoposide in the presence of 4 μM of SLMP53-1), the “decrease of tumor cell growth” value is given as 25%. In experiment [8] (4 μM SLMP53-1, three concentrations tested, 48 hours), the etoposide/doxorubicin-induced growth inhibition result is “increased”.
